Format in all cases: cell-based
For test [1], the system named is "dummy" transfected control COS-7 cells. As to the kind of experiment: Aequorin bioluminescence assay, "dummy" transfected control COS-7 cells (no leukotriene receptor). The following applies: 200 nM agonist, COS-7 cells with "dummy" insert and aequorin. An excerpt: (§1) The photoprotein aequorin, originally isolated from luminescent jellyfish, has proven to be a highly sensitive and quantitative bioluminescence Ca^2+ indicator in cells.
(§2) The aequorin complex contains a 22,000 MW apoaequorin protein, oxygen and the luminophore, coelenterazine. When three Ca^2+ ions bind to this complex, coelenterazine is oxidized to coelenteramide, releasing carbon dioxide and light (emission maximum ˜466 nm). Aequorin has a broad detection range, allowing the measurement of Ca^2+ concentrations from ˜0.1 μM to >100 μM.
(§3) The HUMAN CysLT2 GPCR and apoaequorin cDNAs were transiently co-expressed in cells (the aequorin is targeted for expression in mitochondria). Once cells have been transfected with these expression vectors, they are incubated in a medium containing cell-permeant coelenterazine which reconstitutes the aequorin complex. After formation of the active aequorin complex, intracellular Ca^2+ release caused by activation of the HUMAN CysLT2 GPCR is measured by assaying cells for light production using a luminometer.
(§4) COS-7 cells were trypsinized and plated at 1.5×10^5 cells/well in 6 well tissue culture plates. The cells were grown overnight at 37° C. in DMEM supplemented with 10% FBS, 1% glutamine and 1% non essential amino acids. […]

Another test deals with T1, human CysLT1 receptor (Homo sapiens, UniProt Q9Y271).
T1 construct: expressed in transfected cells; host or cells: COS-7
T1 sequence (Q9Y271 1-337): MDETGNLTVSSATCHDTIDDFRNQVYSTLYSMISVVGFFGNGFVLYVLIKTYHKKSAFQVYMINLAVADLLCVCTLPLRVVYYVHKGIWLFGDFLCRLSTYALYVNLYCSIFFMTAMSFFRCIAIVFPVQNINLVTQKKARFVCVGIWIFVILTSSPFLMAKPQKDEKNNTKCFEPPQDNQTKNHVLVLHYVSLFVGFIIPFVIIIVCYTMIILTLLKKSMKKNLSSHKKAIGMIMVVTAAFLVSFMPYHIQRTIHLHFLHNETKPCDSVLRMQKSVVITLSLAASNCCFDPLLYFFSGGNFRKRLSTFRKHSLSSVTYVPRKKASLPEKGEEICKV
As to the kind of experiment: Aequorin bioluminescence assay of intracellular calcium release, COS-7 cells expressing human CysLT1. The following applies: 200 nM antagonist injected 10 seconds before 200 nM LTC4 or LTD4. (In general: Calcium assays in cells follow changes in intracellular calcium, usually with a dye or a luminescent sensor.)

In the next test the target is T2, HUMAN CysLT2 GPCR (Homo sapiens, UniProt Q9NS75).
T2 construct: expressed in transfected cells; host or cells: COS-7
T2 sequence (Q9NS75 1-346): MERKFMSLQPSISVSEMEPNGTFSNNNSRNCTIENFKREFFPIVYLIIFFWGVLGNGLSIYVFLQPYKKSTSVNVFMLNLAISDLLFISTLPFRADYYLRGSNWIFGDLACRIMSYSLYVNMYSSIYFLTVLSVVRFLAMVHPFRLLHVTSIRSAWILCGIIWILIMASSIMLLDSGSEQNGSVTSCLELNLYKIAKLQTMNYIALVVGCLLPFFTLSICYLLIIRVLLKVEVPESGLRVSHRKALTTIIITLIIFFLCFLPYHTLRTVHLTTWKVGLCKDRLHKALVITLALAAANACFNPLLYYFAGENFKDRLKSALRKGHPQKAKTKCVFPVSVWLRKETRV
In words: Aequorin bioluminescence assay of intracellular calcium release, COS-7 cells expressing HUMAN CysLT2 GPCR. As to conditions: 200 nM antagonist injected 10 seconds before 200 nM LTC4 or LTD4.
From the text: as §1, §2, §3, §4

Entries after “also recorded” stand apart in the source; their conditions may differ.

In the case of `CCCCC/C=C\C\C=C/C=C/C=C/[C@@H](SC[C@H](NC(=O)CC[C@H](N)C(=O)O)C(=O)NCC(=O)O)[C@@H](O)CCCC(=O)O` [LTC4], in test [1], the “aequorin activation by agonist” value was “not on the “dummy” transfected control cells”.
Turning to `CCCCC/C=C\C\C=C/C=C/C=C/[C@@H](SC[C@H](N)C(=O)NCC(=O)O)[C@@H](O)CCCC(=O)O` [LTD4], the “aequorin activation by agonist” value in test [1] is recorded as “not on the “dummy” transfected control cells”.
With `CN(C)C(=O)CCSC(SCCC(=O)O)c1cccc(/C=C/c2ccc3ccc(Cl)cc3n2)c1` (stereo not shown) [MK571], the “block of LTC4 or LTD4 induced receptor activation by antagonist” value on human CysLT1 receptor was “effectively blocked”; on HUMAN CysLT2 GPCR, “neither antagonist significantly inhibited; also recorded: failed to block; also recorded: resistance to inhibition”.

Values taken from patent US20020150901A1, “Novel nucleic acids, polypeptides, methods of making, and uses thereof” (priority 2000, published 2002).
